Measurements: patent publication US20250051322A1, “CRYSTAL OF S[…], SALTS OF S[…], AND CRYSTALS THEREOF” (Eisai R&D Management Co., Ltd., priority 2022, published 2025)
pEC50: −log10 of the molar value.

How the values were obtained:
[1] = system: orexin/ataxin 3 mice (Tg mice); assay: Test Example 4: alertness effect and cataplexy-like behavior inhibiting effect by dark period oral administration to orexin/ataxin 3 mice; assay type: in vivo, mouse; conditions: for DREM latency: solvent 1.16 hours, assessed up to maximum 4 hours; for sleep latency: before lights off, solvent 0.21 hour
Text: The experimental animals used were orexin/ataxin 3 mice (orexin/ataxin-3 Tg/+ (hereunder referred to as “Tg mice”), Hara et al., Neuron, 30, 345-54, 2001) with a C57BL/6 genetic background, with wild type mice (hereunder referred to as “WT mice”) of the same litter as the control. Electroencephalogram and electromyogram measuring electrodes were surgically embedded into 12-week-old mice (+2 weeks) under isoflurane anesthesia. After surgery, and following conditioning to the illumination cycle and experimentation procedure, electroencephalogram and electromyogram measurement were carried out and mice with proper electroencephalogram and electromyogram recording were supplied for the experiment. The solvent (0 mg/kg) or a specimen (solution of compound (I) dissolved in the solvent (0.3, 1 or 3 mg/kg)) was orally administered 30 to 15 minutes before lighting was turned off. The solvent used was a 0.1 mol/L hydrochloric acid solution containing 5% (v/v) DMSO and 5% (v/v) Kolliphor^R EL. The electroencephalogram and electromyogram were recorded for about 24 hours, from 1 hour before lighting was turned off. The mice were repeatedly used, with a washout period of 2 days or longer. The electroencephalogram and electromyogram data obtained for each mouse were used to assess the sleep stage every epoch (10 seconds), using sleep analysis software (SleepSign: Kissei Comtec Co., Ltd.), up to a maximum of 4 hours. For the purpose of this experiment, cataplexy-like symptoms were defined as REM sleep appearing immediately after wakefulness (direct transitions from wake to REM sleep (DREM)) for a contiguous period of 4 epochs or longer. DREM in mice is an analog of cataplexy (Exp Neurol. 2009:217:46-54). The time until initial sleep appeared after lighting out for each mouse (sleep for contiguous 8 epochs or longer, excluding DREM) (sleep latency) and the time until initial DREM appeared (DREM latency) were measured. The numbers of mice were 8 in the solvent-administered group and 14 in the compound (I)-administered group. The sleep latency in a disease control group and a compound (I)-administered group were compared by a Dunnet-type multiple comparison test following survival time analysis in consideration of the number of experiments and use of the same individuals, with a significance level of 5% at both ends for each. The DREM latency in the normal control group and disease control group were compared by survival time analysis in consideration of the number of experiments and use of the same individuals. Cases with significance in the statistical test for the disease control group and the compound (I)-administered group were compared by a Dunnet-type multiple comparison test following survival time analysis in consideration of the number of experiments and use of the same individuals, with a significance level of 5% at both ends for each.

[2] = system: C57BL/6 line wild type (WT) male mice; assay: Test Example 3: alertness effect (sleep latency, EEG/EMG) by dark period oral administration to wild type mice; assay type: in vivo, mouse; conditions: before lights off, solvent 0.23 hour
Procedure: The experimental animals used were C57BL/6 line wild type (WT) male mice. Electroencephalogram and electromyogram measuring electrodes were surgically embedded into 13-week-old mice under isoflurane anesthesia. After surgery, and following conditioning to the illumination cycle and experimentation procedure, electroencephalogram and electromyogram measurement were carried out and mice with proper electroencephalogram and electromyogram recordings were supplied for the experiment. The solvent (0 mg/kg) or a solution of compound (I) dissolved in the solvent (1, 3 or 10 mg/kg) was orally administered 30 to 15 minutes before lighting was turned off. The solvent used was a 0.1 mol/L hydrochloric acid solution containing 5% (v/v) DMSO and 5% (v/v) Kolliphor^R EL. The electroencephalogram and electromyogram were recorded for about 24 hours, from 1 hour before lighting was turned off. The mice were repeatedly used, with a washout period of 2 days or longer. The electroencephalogram and electromyogram data obtained for each mouse were used to assess the sleep stage every epoch (10 seconds), using sleep analysis software (SleepSign: Kissei Comtec Co., Ltd.). […] Using 16 mice in each administered group, the sleep latency in a solvent-administered group (control group) and a compound (I)-administered group were compared by a Dunnet-type multiple comparison test following survival time analysis in consideration of the number of experiments and use of the same individuals, with a significance level of 5% at both ends for each.

[3] = system: Male C57BL/6NCrl mice; assay: Test Example 2: increase in spontaneous movement; assay type: in vivo, mouse; conditions: 10 mg/kg orally, measured 2 hours after administration, control group = 100%
Procedure: Increased movement in mice is an indicator of increased alertness time, higher body temperature and augmented cardiovascular parameters, as well as heightened alertness. In this test example, the alertness effect was evaluated by measuring spontaneous movement of the mice. Male C57BL/6NCrl mice (18-19 weeks old, Charles River Laboratories, Japan Inc., 4 mice in each group) were used for the experiment. Spontaneous movement was measured by using a movement measuring device (VersaMax Open Field, AccuScan Instruments, Inc.), irradiating infrared rays from the side sections of the measuring cage, and quantifying the number of times that the mice passed through the irradiated rays. After placing the mice in the measuring cage and conditioning for 3 hours, compound (I) was orally administered (10 mg/kg). Spontaneous movement was measured 2 hours after administration. The mice in the compound (I)-administered group were administered a solution of compound (I) dissolved in 0.1 mol/L hydrochloric acid containing 5% (v/v) DMSO and 5% (v/v) Kolliphor^R EL. For the control group, solvent alone without compound (I) was administered to the mice.
Spontaneous movement was represented as a percentage for the compound (I)-administered group, with spontaneous movement in the control group as 100%.

[4] = target: T1, hOX1R (Homo sapiens, UniProt O43613); assay: Test Example 1-1: activating activity for OX1R (intracellular calcium, HEK293 with forced expression); assay type: cell-based; conditions: calcium fluorescence, 3×10^-10 M to 1×10^-7 M, 10 nM OX-A as 100%
T1 construct: expressed in transfected cells; host or cells: HEK293
T1 sequence (O43613 1-425): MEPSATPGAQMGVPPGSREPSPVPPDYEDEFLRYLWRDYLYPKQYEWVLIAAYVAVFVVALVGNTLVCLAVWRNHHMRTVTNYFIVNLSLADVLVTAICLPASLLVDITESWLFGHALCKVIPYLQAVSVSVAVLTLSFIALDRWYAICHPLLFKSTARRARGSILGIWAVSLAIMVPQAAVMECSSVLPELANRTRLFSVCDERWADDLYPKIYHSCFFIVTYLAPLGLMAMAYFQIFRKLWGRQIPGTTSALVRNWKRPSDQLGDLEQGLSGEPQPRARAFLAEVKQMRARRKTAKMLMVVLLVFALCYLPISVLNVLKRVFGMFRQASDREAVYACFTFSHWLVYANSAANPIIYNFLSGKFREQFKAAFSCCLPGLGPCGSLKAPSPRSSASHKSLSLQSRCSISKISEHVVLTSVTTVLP
Procedure: Human Embryonic Kidney cells 293 (HEK293) cells with forced expression of hOX1R and hOX2R were seeded in a 384-well microplate (Greiner) at 10,000 per well and cultured for 24 hours in high-glucose-DMEM (FujiFilm Corp.-Wako Pure Chemical Industries, Ltd.) containing added 10% FBS (Thermo Scientific) and 1% Penicillin-Streptomycin (FujiFilm Corp.-Wako Pure Chemical Industries, Ltd.). After removing the medium, there was added 40 μL of assay buffer (20 mM HEPES (Sigma-Aldrich Japan, KK.), Hank's Balanced Salt Solution (Gibco), 0.1% BSA (Sigma-Aldrich Japan, KK.), 0.1% Pluronic F-127 (Biotium, Inc.)) containing Calcium 4 dye (Molecular Device Corporation) and 2.5 mM probenecid (Sigma-Aldrich Japan, KK.), and the mixture was incubated for 60 minutes. After further adding 20 μL of assay buffer, 20 μL of assay buffer containing the test compound was added and reaction was initiated. Change in intracellular calcium ion concentration by the reaction was measured based on the fluorescence intensity ratio in terms of the fluorescence value with dual wavelength excitation at 480 nm and 540 nm, using FDSS7000 (Hamamatsu Photonics, K.K.). The test compound was dissolved in DMSO to 10 mM, and diluted with assay buffer to a final concentration of from 3×10^−10 M to 1×10^−7 M (DMSO final concentration of 0.1%). […]

Row | SMILES | DREM latency ([1]; 0.3 mg/kg oral, significant) [h] | DREM latency ([1]; 1 mg/kg oral, significant) [h] | DREM latency ([1]; 3 mg/kg oral, significant) [h] | sleep latency ([2]; 1 mg/kg oral) [h] | sleep latency ([2]; 3 mg/kg oral, significant) [h] | sleep latency ([2]; 10 mg/kg oral, significant) [h] | Spontaneous movement (% of Control) [3] | pEC50 [4] | sleep latency ([1]; 0.3 mg/kg oral) [h] | sleep latency ([1]; 1 mg/kg oral, significant) [h] | sleep latency ([1]; 3 mg/kg oral, significant) [h]
1 | CO[C@@H]1CN(c2ncc(F)cn2)CC[C@@H]1[C@@H]1C[C@H]2CC[C@@H](C1)N2[C@@H](C(N)=O)C1CC1 [Compound (I), (2R)-2-cyclopropyl-2-{(1R,3S,5S)-3-[(3S,4R)-1-(5-fluoropyrimidin-2-yl)-3-methoxypiperidin-4-yl]-8-azabicyclo[3.2.1]octan-8-yl}acetamide] | 1.50 | 2.26 | 4.00 | 0.28 | 0.44 | 2.07 | 865 % of Control | < 7.00 | – | – | –
2 | CO[C@@H]1CN(c2ncc(F)cn2)CC[C@@H]1[C@@H]1C[C@H]2CC[C@@H](C1)N2[C@@H](C(N)=O)C1CC1 [Example 1, (2R)-2-cyclopropyl-2-{(1R,3S,5S)-3-[(3S,4R)-1-(5-fluoropyrimidin-2-yl)-3-methoxypiperidin-4-yl]-8-azabicyclo[3.2.1]octan-8-yl}acetamide] | – | – | – | – | – | – | – | – | 0.31 | 0.64 | 2.42
